The source of these data is patent US5389643A, “Aminobenzoic acid derivatives useful for treating gastro-intestinal conditions” (Eisai Co., Ltd., priority 1992, dated 1995).

Counter-ions that a name gives are not always drawn. Like-named read-outs stand apart in the source and are kept apart here. Where only a bound is given, the exact number is not on record here.

Experiment [1] concerns contraction of guinea pig ileum induced by electrical field stimulation (acetylcholine release). In words: Effect of increasing contraction of guinea pig ileum induced by electrical field stimulation. It is filed as cell-based. As to conditions: electrical field stimulation once per 10 seconds, cumulative addition at intervals of 10 minutes, 37° C., read-out: Min. concn. causing increment of ileal contraction. On the procedure:
Effect of increasing contraction of guinea pig ileum induced by electrical field stimulation
This experiment was made according to the method of Sanger et al. [see Br. J. Pharmacol., 91, 77-87 (1987)]. The longitudinal muscle of the nonterminal ileum of a guinea pig was separated and vertically suspended in the Krebs-Henseleit solution (37° C.) in a Magnus tube by applying a load of 0.5 g to the end of the muscle. A mixed gas comprising 95% of oxygen and 5% of carbon dioxide was passed through the solution. The contraction of the muscle was isometrically determined. Electrical field stimulation was applied to the muscle by the use of a platinum electrode once per 10 seconds to induce the contraction of the muscle. The contraction was caused through the release of acetylcholine. After the muscle had been stabilized, a solution of a test compound was cumulatively added into the Magnus tube at intervals of 10 minutes. The effect of the test compound is represented by percentage based on the initial contraction. The minimum concentration of each test compound at which an increment was found in the contraction due to the release of acetylcholine is shown in Table 4.

Experiment [2] has as its system gastric emptying function. As to the kind of experiment: Activity for raising gastric emptying function. It is filed as in vivo, Fischer male rats. As to conditions: oral (5 ml/kg), one hour before test food, versus control rat. The protocol:
Activity for raising gastric emptying function
This experiment was made according to the method of Decktot et al. [see Eur. J. Pharmacol., 147, 313-316 (1988)]. Fischer male rats (weight: 160 to 180 g) were fasted for 18 hours before 3 ml of a test food comprising methylcellulose, beef broth, casein, sugar and corn starch was orally administered to each rat. One hour after the administration, the stomach was extirpated from each rat. The gastric emptying ratio was calculated from the weight of the test food remaining in the stomach. The ratio of rise of the gastric emptying function was determined by comparing the gastiric emptying ratio of a medicated rat with that of a control rat which had not administered any test compounds. Each test compound (5 ml/kg) was orally administered one hour before the administration of the test food. BRL 24682 was used as a control in this experiment.

For experiment [3], the target named is T1, 2-methylserotonin-induced contraction of the ileum (5-HT3 antagonism) (Cavia porcellus, UniProt O70212).
T1 construct: from tissue; host or cells: isolated nonterminal ileum of male Hartley guinea pig
T1 sequence (O70212 20-490): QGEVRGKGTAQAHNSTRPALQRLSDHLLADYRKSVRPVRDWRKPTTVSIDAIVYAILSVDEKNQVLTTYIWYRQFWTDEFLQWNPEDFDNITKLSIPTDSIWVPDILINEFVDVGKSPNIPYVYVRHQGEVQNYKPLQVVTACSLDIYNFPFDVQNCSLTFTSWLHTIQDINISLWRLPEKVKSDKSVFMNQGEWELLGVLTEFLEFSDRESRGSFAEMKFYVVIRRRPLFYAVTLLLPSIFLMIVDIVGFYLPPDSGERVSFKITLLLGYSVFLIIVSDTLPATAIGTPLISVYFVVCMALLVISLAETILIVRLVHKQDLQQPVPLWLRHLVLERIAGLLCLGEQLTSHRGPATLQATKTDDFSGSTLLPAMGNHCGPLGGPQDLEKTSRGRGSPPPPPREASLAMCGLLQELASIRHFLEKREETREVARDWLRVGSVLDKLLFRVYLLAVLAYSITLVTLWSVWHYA
In words: Antagonism against 2-methylserotonin-induced contraction or systole of ileum. The note with it: test compound added 30 minutes before 2-methylserotonin, nonterminal ileum, 37° C.; for Kb: read-out: pA2 (converted). It counts as cell-based, guinea pig (Hartley male). On the procedure: Antagonism against 2-methylserotonin-induced contraction or systole of ileum
This experiment was made according to the method of Sanger et al. [see Eur. J. Pharmacol., 159, 113-124 (1989)]. The nonterminal ileum of a Hartley male guinea pig was suspended in the Krebs-Henseleit solution (37° C.) by applying a load of 0.5 g to the end of the ileum and a gaseous mixture comprising 95% of oxygen and 5% of carbon dioxide was passed through the solution. The contraction of the ileum was isometrically determined. After allowing the ileum to stand for one or more hours for stabilization, a solution of a test compound was added to the solution, and after 30 minutes, 2-methylserotonin was noncumulatively added. The pA2 value was calculated from the rightward shift of the dose-response curve of the 2-methylserotonin-induced contraction caused by the test compound according to the method of Rossum et al. [see Arch. Int. Pharmacodyn., 143, 299(1963)]. BRL 24682 was used as a control in this experiment.

For `CN1[C@@H]2CC[C@H]1C[C@@H](NC(=O)c1cc(Cl)c(N)cc1OCCCC#N)C2` [Example 31, endo-4-Amino-5-chloro-2-(3-cyanopropoxy)-N-(8-methyl-8-azabicyclo[3.2.1]oct-3-yl)benzamide hydrochloride], the minimal effective concentration in experiment [1] (Cavia porcellus, 10 min) was above 100 µM. As for `C#CC(CC)Oc1cc(N)c(Cl)cc1C(=O)N[C@H]1C[C@H]2CC[C@@H](C1)N2C` (single isomer, unassigned; (-)) [Example 37, (-)-endo-4-Amino-5-chloro-N-(8-methyl-8-azabicyclo[3.2.1]oct-3-yl)-2-{(1-pentyn-3-yl)oxy}benzamide hydrochloride], in experiment [2] (listed as 37 (-)-isomer, hydrochloride), the “Ratio of rise of gastric emptying function” value came out at 15.3%. Besides, the minimal effective concentration in experiment [1] (listed as 37 (+)-isomer, hydrochloride) was 0.048 µM. Take `C#CC(CCC)Oc1cc(N)c(Cl)cc1C(=O)N[C@H]1C[C@H]2CC[C@@H](C1)N2C` (stereo partly drawn) [Example 29, endo-4-Amino-5-chloro-2-{(1-hexyn-3-yl)oxy}-N-(8-methyl-8-azabicyclo[3.2.1]oct-3-yl)benzamide hydrochloride]: in experiment [3], the Kb was 0.457 nM. Further, in experiment [2], the “Ratio of rise of gastric emptying function” value is 20.6%. The minimal effective concentration in experiment [1] (Cavia porcellus, 10 min) was 0.26 µM. As for `C#CC(CC)Oc1cc(N)c(Cl)cc1C(=O)N[C@H]1C[C@H]2CC[C@@H](C1)N2C` (single isomer, unassigned; (+)) [Example 38, (+)-endo-4-Amino-5-chloro-N-(8-methyl-8-azabicyclo[3.2.1]oct-3-yl)-2-{(1-pentyn-3-yl)oxy}benzamide hydrochloride], in experiment [3], the Kb was 0.955 nM. Further, in experiment [2] (listed as 38 (+)-isomer, hydrochloride), the “Ratio of rise of gastric emptying function” value amounted to 20.5%. Moreover, in experiment [1] (listed as 38 (-)-isomer, hydrochloride), the minimal effective concentration is reported as 0.13 µM. `C#CC(CC)Oc1cc(N)c(Cl)cc1C(=O)N[C@H]1C[C@H]2CC[C@@H](C1)N2C` (stereo partly drawn) [Example 20, endo-4-Amino-5-chloro-N-(8-methyl-8-azabicyclo[3.2.1]oct-3-yl)-2-{(1-pentyn-3-yl)oxy}benzamide hydrochloride]: in experiment [1] (Cavia porcellus, 10 min), the minimal effective concentration came to 0.11 µM. In the case of `CCC#CCC(C)Oc1cc(N)c(Cl)cc1C(=O)N[C@H]1C[C@H]2CC[C@@H](C1)N2C` (stereo partly drawn) [Example 26, endo-4-Amino-S-chloro-2-{(4-heptyn-2-yl)oxy}-N-(8-methyl-8-azabicyclo[3.2.1]oct-3-yl)benzamide hydrochloride], in experiment [3], the Kb is 0.468 nM. In addition, the minimal effective concentration in experiment [1] (Cavia porcellus, 10 min) was above 100 µM. With `CC#CC(C)Oc1cc(N)c(Cl)cc1C(=O)N[C@H]1C[C@H]2CC[C@@H](C1)N2C` (single isomer, unassigned; (+)) [Example 36, (+)-endo-4-Amino-5-chloro-N-(8-methyl-8-azabicyclo[3.2.1]oct-3-yl)-2-{(3-pentyn-2-yl)oxy}benzamide hydrochloride], the Kb in experiment [3] is 1.91 nM. Besides, in experiment [1] (listed as 36 (-)-isomer, hydrochloride), the minimal effective concentration is recorded as 0.26 µM. Take `CCC#CC(C)Oc1cc(N)c(Cl)cc1C(=O)N[C@H]1C[C@H]2CC[C@@H](C1)N2C` (stereo partly drawn) [Example 28, endo-4-Amino-5-chloro-2-{(3-hexyn-2-yl)oxy}-N-(8-methyl-8-azabicyclo[3.2.1]oct-3-yl)benzamide hydrochloride]: the minimal effective concentration in experiment [1] (Cavia porcellus, 10 min) is above 100 µM. As a reminder, the pA2 is the negative logarithm of the molar antagonist concentration that doubles the agonist concentration needed for the same response. A low value points to lower antagonist potency. `COc1cc(N)c(Cl)cc1C(=O)NC1CC2CCC(C1)N2C` (stereo not shown) [BRL 24682, reference compound]: the pA2 in experiment [3] came out at 7.80. The “Ratio of rise of gastric emptying function” value in experiment [2] is listed as 12.9%. The minimal effective concentration in experiment [1] came out at 0.086 µM. Consider `CC#CC(CC)Oc1cc(N)c(Cl)cc1C(=O)N[C@H]1C[C@H]2CC[C@@H](C1)N2C` (stereo partly drawn) [Example 27, endo-4-Amino-5-chloro-2-{(2-hexyn-4-yl)oxy}-N-(8-methyl-8-azabicyclo[3.2.1]oct-3-yl)benzamide hydrochloride], for which, in experiment [3], the Kb was 0.407 nM. The “Ratio of rise of gastric emptying function” value in experiment [2] came out at 17.2%. Also, the minimal effective concentration in experiment [1] (Cavia porcellus, 10 min) was found to be 0.25 µM. With `CN1[C@@H]2CC[C@H]1C[C@@H](NC(=O)c1cc(Cl)c(N)cc1OCCF)C2` [Example 30, endo-4-Amino-5-chloro-2-(2-fluoroethoxy)-N-(8-methyl-8-azabicyclo[3.2.1]oct-3-yl)benzamide hydrochloride], the minimal effective concentration in experiment [1] (Cavia porcellus, 10 min) came out at 0.038 µM.

As for `C#CC(C)Oc1cc(N)c(Cl)cc1C(=O)N[C@H]1C[C@H]2CC[C@@H](C1)N2C` (stereo partly drawn) [Example 24, endo-4-Amino-2-{(3-butyn-2-yl)oxy}-5-chloro-N-(8-methyl-8-azabicyclo[3.2.1]oct-3-yl)benzamide hydrochloride], the “Ratio of rise of gastric emptying function” value in experiment [2] came to 13.2%. In experiment [1] (Cavia porcellus, 10 min), the minimal effective concentration stood at 0.17 µM. With `CCC#CC(CC)Oc1cc(N)c(Cl)cc1C(=O)N[C@H]1C[C@H]2CC[C@@H](C1)N2C` (stereo partly drawn) [Example 25, endo-4-Amino-5-chloro-2-{(4-heptyn-3-yl)oxy)-N-(8-methyl-8-azabicyclo[3.2.1]oct-3-yl)benzamide hydrochloride], the Kb in experiment [3] is 0.891 nM. The “Ratio of rise of gastric emptying function” value in experiment [2] is 26.3%. Besides, the minimal effective concentration in experiment [1] (Cavia porcellus, 10 min) stood at 1 µM. Regarding `C#CCC(C)Oc1cc(N)c(Cl)cc1C(=O)N[C@H]1C[C@H]2CC[C@@H](C1)N2C` (stereo partly drawn) [Example 40, endo-4-Amino-5-chloro-N-(8-methyl-8-azabicyclo[3.2.1]oct-3-yl)-2-{(4-pentyn-2-yl)oxy}benzamide hydrochloride], in experiment [2], the “Ratio of rise of gastric emptying function” value is reported as 16.2%. Also, in experiment [1] (Cavia porcellus, 10 min), the minimal effective concentration was found to be 0.22 µM. For the molecule `CN1[C@@H]2CC[C@H]1C[C@@H](NC(=O)c1cc(Cl)c(N)cc1OC1CCOCC1)C2` [Example 33, endo-4-Amino-5-chloro-N-(8-methyl-8-azabicyclo[3.2.1]-oct-3-yl)-2-(tetrahydro-4H-pyran-4-oxy)benzamide hydrochloride], in experiment [3], the Kb is 6.17 nM. Moreover, the minimal effective concentration in experiment [1] (Cavia porcellus, 10 min) was 1.8 µM.

On to `C#CCCOc1cc(N)c(Cl)cc1C(=O)N[C@H]1C[C@H]2CC[C@@H](C1)N2C` [Example 46, endo-4-Amino-2-(3-butynyloxy)-5-chloro-N-(8-methyl-8-azabicyclo[3.2.1]oct-3-yl)benzamide hydrochloride], for which the minimal effective concentration in experiment [1] (Cavia porcellus, 10 min) worked out at 0.16 µM.

As to `CC#CCCOc1cc(N)c(Cl)cc1C(=O)N[C@H]1C[C@H]2CC[C@@H](C1)N2C` [Example 23, endo-4-Amino-5-chloro-N-(8-methyl-8-azabicyclo[3.2.1]oct-3-yl)-2-(3-pentynyloxy)benzamide hydrochloride], the minimal effective concentration in experiment [1] (Cavia porcellus, 10 min) was above 100 µM. The same measure, in the same setting: the value for `CC#CCOc1cc(N)c(Cl)cc1C(=O)N[C@H]1C[C@H]2CC[C@@H](C1)N2C` [Example 22, endo-4-Amino-2-(2-butynyloxy)-5-chloro-N-(8-methyl-8-azabicyclo[3.2.1]oct-3-yl)benzamide hydrochloride] was above 100 µM.
